The structures appear in SMILES notation. pIC50: −log10 of the molar value. Structures can show the parent of a compound that is named as a salt.

One assay deals with T1, ZAP-70 (Homo sapiens, UniProt P43403).
T1 construct: endogenous in cells; host or cells: cell lysate
T1 sequence (P43403 1-619): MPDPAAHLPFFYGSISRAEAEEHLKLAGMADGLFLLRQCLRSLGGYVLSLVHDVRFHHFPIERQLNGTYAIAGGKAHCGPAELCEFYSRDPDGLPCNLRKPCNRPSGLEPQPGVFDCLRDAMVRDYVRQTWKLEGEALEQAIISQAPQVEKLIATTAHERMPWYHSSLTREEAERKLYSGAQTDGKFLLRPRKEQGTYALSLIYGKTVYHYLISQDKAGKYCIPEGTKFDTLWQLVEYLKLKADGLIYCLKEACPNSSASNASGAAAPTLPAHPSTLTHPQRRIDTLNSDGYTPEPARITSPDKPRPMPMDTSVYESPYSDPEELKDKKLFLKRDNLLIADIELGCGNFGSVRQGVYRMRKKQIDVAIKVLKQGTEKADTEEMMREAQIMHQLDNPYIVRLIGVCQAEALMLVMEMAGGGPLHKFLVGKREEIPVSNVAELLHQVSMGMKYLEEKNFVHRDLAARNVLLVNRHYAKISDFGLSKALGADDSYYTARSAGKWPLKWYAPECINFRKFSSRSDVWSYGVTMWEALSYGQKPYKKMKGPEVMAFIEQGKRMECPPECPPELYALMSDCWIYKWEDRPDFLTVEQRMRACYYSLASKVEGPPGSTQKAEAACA
Nature of the assay: ZAP-70 kinobeads assay. In kind it is binding. Conditions: competition with immobilized aminopyrido-pyrimidine ligand 24 in cell lysate; ZAP-70 detected by dot blot. A digest of the protocol: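 Cell lysate aliquots incubated with test compounds at various concentrations plus affinity beads carrying immobilized aminopyrido-pyrimidine ligand 24. Bead-captured proteins eluted; ZAP-70 quantified by specific antibody dot blot with infrared detection.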

The test system of a further assay is Jurkat cells. Nature of the assay: Calcium release assay (Fluo-4 flow cytometry after anti-CD3 stimulation). It is filed as cell-based. The note with it: Homo sapiens, Jurkat cell line J77, anti-CD3 activation, read-out: IC50 (Calcium ion release in cells). The protocol:
Compounds of the present invention were tested in a Calcium release assay as described below.
The development of fluorescent probes makes it possible to measure the concentration of intracellular free Calcium ions in single living cells. Cells are first loaded with a cell-permeable Ca^2+-sensitive dye, then the test compound is added. Finally, cells are activated through the T cell receptor with an anti-CD3 antibody shortly before data acquisition on the flow cytometer. The release of Ca^2+ is measured as a function of time after cell stimulation. This protocol describes the flow cytometry method using the Fluo-3 and Fluo-4 dyes (Minta et al., 1989, J. Biol. Chem. 264(14):8171-8178) to measure the intracellular Ca^2+ concentration in Jurkat cells (see also June et al., 1997, Measurement of intracellular calcium ions by flow cytometry. In: Current Protocols in Cytometry (1997) Unit 9.8.1-9.8.19, John Wiley & Sons, Inc.).
In general, cells should be handled in the shortest time possible to assure their stability. Therefore the preparation of all materials in advance is highly recommended as well as using any incubation or centrifugation time to prepare the next steps (e.g. preparing compound dilution or starting the flow cytometer).
1) Prepare a work plan indicating the number of samples to be analyzed including controls. 2) Cell harvest: Centrifuge 50 to 100 ml of a Jurkat cell culture for 5 minutes at 1100 rpm. Discard the supernatant, pool the resuspended cell pellets in a single 50 ml Falcon tube, and fill up to 50 ml with PBS—CaCl2 (without FCS). Centrifuge again sample again. 3) Resuspend cell pellet with PBS—CaCl2 (without FCS) to achieve a concentration not lower than 10×10^6 cells/ml. Prepare an adequate dilution to evaluate the cell concentration and count the cells. 4) Separate the volume of cells needed to be loaded (for example […] for 20 samples) in a 50 ml Falcon tube. Fill up with PBS—CaCl2 to 900 μl for 107 cells. 5) Prepare in the dark a 1:1 mix of FLUO-4 (1 mM)+Pluronic F-127 (20%). 5 μl of Fluo-4 are needed per 107 cells. 6) Prepare a 1/10 dilution of this mix with PBS—CaCl2 (in the dark; for example 5 μl Fluo-4+5 μl F-127 completed to 100 μl). 7) Add the dye solution to the cells. […] 8) Incubate the sample for 30 minutes in a cell incubator (37° C., 5% CO2). Mix from time to time. 9) During this time prepare the adequate test compound dilution in PBS—CaCl2 (with 10% FCS). The solution should be 10 times more concentrated than the desired final concentration. Vortex each dilution. Prepare also the antibody dilutions: anti-CD3 (1/200) and GAM (1/25). 10) Label FACS tubes and distribute in the corresponding tube 30 μl of the compound dilution or only buffer for the control tubes. 11) After 30 minutes of incubation wash the cells twice in PBS—CaCl2 (with 10% FCS). During the washing steps make sure that the flow cytometer is already “ON” in order to warm the laser. 12) Resuspend the cell pellet in PBS—CaCl2 (with 10% FCS) at a concentration of 1.5×10^6 cells/ml. 13) Distribute 300 μl of cell suspension into the FACS tubes and mix gently. The compound incubation is starting. Keep samples at room temperature in the dark. 14) Open the settings of the cytometer. It is advised to have a template ready which is used for all measurements. Settings of the machine should also be the same from one experiment to the other which permits to evaluate the reproducibility of the cell preparation. 15) In Setup modus control your cell preparation on the cytometer. Cells should fit in the pre-defined gates. 16) During the compound incubation time, check also that cells are responding to the anti-CD3 activation as expected. Set a timer at 8 sec. Add 6 μl of anti-CD3 dilution (0.2 μg/ml final) and mix gently. Add 1 μl of GAM dilution (0.75 μg/ml final) and mix gently. Incubate the samples in water bath at 37° C. while starting timer. After 8 seconds of incubation, acquire data at medium speed for 200 seconds. […]
(In general: In flow cytometry, cells or beads pass a laser one at a time.)

With `CNCCS(=O)(=O)Nc1ccccc1Nc1nc(Nc2cc(OC)c(OC)c(OC)c2)ncc1F` [Example 62, N-(2-(5-fluoro-2-(3,4,5-trimethoxyphenylamino)pyrimidin-4-ylamino)phenyl)-2-(methylamino)ethanesulfonamide], the pIC50 on ZAP-70 is 5.00 to 6.00; with Jurkat cells, 6.00 to 7.00.
Consider `CNCCS(=O)(=O)Nc1cccc(Nc2nc(Nc3cc(OC)c(OC)c(OC)c3)ncc2F)c1` [Example 64, N-(3-(5-fluoro-2-(3,4,5-trimethoxyphenylamino)pyrimidin-4-ylamino)phenyl)-2-(methylamino)ethanesulfonamide], for which the pIC50 on ZAP-70 and in the assay with Jurkat cells was 6.00 to 7.00 throughout.
`COc1cc(Nc2ncc(C)c(Nc3ccccc3NS(C)(=O)=O)n2)cc(OC)c1OC` [Example 66, N-(2-(5-methyl-2-(3,4,5-trimethoxyphenylamino)pyrimidin-4-ylamino)phenyl)methanesulfonamide]: the pIC50 at ZAP-70 and in the assay on Jurkat cells was 6.00 to 7.00 throughout.
Consider `Cc1cc(C)cc(Nc2ncc(C)c(Nc3ccccc3NS(C)(=O)=O)n2)c1` [Example 67, N-(2-(2-(3,5-dimethylphenylamino)-5-methylpyrimidin-4-ylamino)phenyl)methanesulfonamide], for which the pIC50 on ZAP-70 and in the assay on Jurkat cells was 6.00 to 7.00 each time.
For `COc1cc(Nc2nccc(Nc3ccccc3NS(C)(=O)=O)n2)cc(OC)c1OC` [Example 69, N-(2-(2-(3,4,5-trimethoxyphenylamino)pyrimidin-4-ylamino)phenyl)methanesulfonamide], the pIC50 at ZAP-70 and in the assay on Jurkat cells was 6.00 to 7.00 in each case.
With `COc1cc(Nc2ncc(Br)c(Nc3ccccc3NS(C)(=O)=O)n2)cc(OC)c1OC` [Example 70, N-(2-(5-bromo-2-(3,4,5-trimethoxyphenylamino)pyrimidin-4-ylamino)phenyl)methanesulfonamide], the pIC50 was > 7.00 at ZAP-70 and 6.00 to 7.00 in the assay with Jurkat cells.
`Cc1cc(C)cc(Nc2ncc(F)c(Nc3ccccc3N(C)S(C)(=O)=O)n2)c1` [Example 72, N-(2-(2-(3,5-dimethylphenylamino)-5-fluoropyrimidin-4-ylamino)phenyl)-N-methylmethanesulfonamide]: the pIC50 was 5.00 to 6.00 at ZAP-70 and 6.00 to 7.00 in the assay on Jurkat cells.
With `CS(=O)(=O)Nc1ccccc1Nc1nc(Nc2cccc(O)c2)ncc1F` [Example 76, N-(2-(5-fluoro-2-(3-hydroxyphenylamino)pyrimidin-4-ylamino)phenyl)methanesulfonamide], the negative-log IC50 (pIC50) at ZAP-70 and in the assay on Jurkat cells was 6.00 to 7.00 in each case.
On to `CS(=O)(=O)Nc1ccccc1Nc1nc(Nc2cccc(OCCN3CCOCC3)c2)ncc1F` [Example 77, N-(2-(5-fluoro-2-(3-(2-morpholinoethoxy)phenylamino)pyrimidin-4-ylamino)phenyl)methanesulfonamide], for which the negative logarithm of the IC50 (pIC50) at ZAP-70 and in the assay on Jurkat cells was 6.00 to 7.00 in each case.
As to `CS(=O)(=O)Nc1ccccc1Nc1nc(Nc2cccc(OCCO)c2)ncc1F` [Example 78, N-(2-(5-fluoro-2-(3-(2-hydroxyethoxy)phenylamino)pyrimidin-4-ylamino)phenyl)methanesulfonamide], the pIC50 at ZAP-70 is 6.00 to 7.00; in the assay on Jurkat cells, > 7.00.
As for `CS(=O)(=O)Nc1ccccc1Nc1nc(Nc2cccc(OCCN3CCCCC3)c2)ncc1F` [Example 79, N-(2-(5-fluoro-2-(3-(2-(piperidin-1-yl)ethoxy)phenylamino)pyrimidin-4-ylamino)phenyl)methanesulfonamide formate], the pIC50 on ZAP-70 and with Jurkat cells was > 7.00 throughout.
`CS(=O)(=O)Nc1ccccc1Nc1nc(Nc2ccc(OCCN3CCOCC3)cc2)ncc1F` [Example 86, N-(2-(5-fluoro-2-(4-(2-morholinoethoxy)phenylamino)pyrimidin-4-ylamino)phenyl)methanesulfonamide]: the pIC50 at ZAP-70 and in the assay on Jurkat cells was 6.00 to 7.00 throughout.
Take `CS(=O)(=O)Nc1ccccc1Nc1nc(Nc2ccc(OCCN3CCCCC3)cc2)ncc1F` [Example 87]: the pIC50 at ZAP-70 is 6.00 to 7.00; with Jurkat cells, > 7.00.
The corresponding values for `COc1cc(Nc2ncc(F)c(Nc3ccccc3NS(C)(=O)=O)n2)ccc1N1CCCC1` [Example 88, N-(2-(5-fluoro-2-(3-methoxy-4-(pyrrolidin-1-yl)phenylamino)pyrimidin-4-ylamino)phenyl)methanesulfonamide] are 6.00 to 7.00 and 6.00 to 7.00.
For `CN1CCN(CCOc2ccc(Nc3ncc(F)c(Nc4ccccc4NS(C)(=O)=O)n3)cc2)CC1` [Example 89, N-(2-(5-Fluoro-2-(4-(2-(4-methylpiperazin-1-yl)ethoxy)phenylamino)pyrimidin-4-ylamino)phenyl)methanesulfonamide], the pIC50 on ZAP-70 and in the assay with Jurkat cells was 6.00 to 7.00 in each case.
With `CS(=O)(=O)Nc1ccccc1Nc1nc(Nc2ccc(OCCCN3CCCCC3)cc2)ncc1F` [Example 90], the pIC50 on ZAP-70 and in the assay on Jurkat cells was 6.00 to 7.00 each time.
For `CN1CCN(CCCOc2ccc(Nc3ncc(F)c(Nc4ccccc4NS(C)(=O)=O)n3)cc2)CC1` [Example 91, N-(2-(5-fluoro-2-(4-(3-(4-methylpiperazin-1-yl)propoxy)phenylamino)pyrimidin-4-ylamino)phenyl)methanesulfonamide], the pIC50 on ZAP-70 and in the assay on Jurkat cells was 6.00 to 7.00 throughout.
Turning to `CS(=O)(=O)Nc1ccccc1Nc1nc(Nc2ccc(OCCCN3CCCC3)cc2)ncc1F` [Example 92], the pIC50 on ZAP-70 and in the assay on Jurkat cells was 6.00 to 7.00 each time.
As for `CS(=O)(=O)Nc1ccccc1Nc1nc(Nc2ccc(NCCN3CCCC3)cc2)ncc1F` [Example 93, N-(2-(5-fluoro-2-(4-(2-pyrrolidin-1-yl)ethylamino)phenylamino)pyrimidin-4-ylamino)phenyl)methanesulfonamide formate], the pIC50 at ZAP-70 and in the assay on Jurkat cells was 6.00 to 7.00 in each case.
For `COc1cc(Nc2ncc(F)c(Nc3ccccc3NS(C)(=O)=O)n2)cc(OCCN2CCCC2)c1` [Example 94, N-(2-(5-fluoro-2-(3-methoxy-5-(2-(pyrrolidin-1-yl)ethoxy)phenylamino)pyrimidin-4-ylamino)phenyl)methanesulfonamide formate salt], the pIC50 at ZAP-70 and in the assay with Jurkat cells was 6.00 to 7.00 throughout.

A word on the pIC50: it is −log10 of the IC50, conventionally taken in molar units.
